Results as given in ChEMBL document CHEMBL3045017, “Responses of Spodoptera littoralis larvae to Tunisian plant extracts and to neo-clerodane diterpenoids isolated from Ajuga pseudoiva leaves” (2000).

Legend:
Format in all cases: functional
Spodoptera littoralis [1] = assay: Antifeedant activity against final stage larvae of Spodoptera littoralis at 1 mg/l after 8 to 24 hr
Spodoptera littoralis [2] = assay: Antifeedant activity against final stage larvae of Spodoptera littoralis at 0.1 mg/l after 8 to 24 hr
Spodoptera littoralis [3] = assay: Antifeedant activity against final stage larvae of Spodoptera littoralis at 10 mg/l after 8 to 24 hr
Spodoptera littoralis [4] = assay: Antifeedant activity against final stage larvae of Spodoptera littoralis at 100 mg/l after 8 to 24 hr

`CC[C@H](C)C(=O)O[C@H]1[C@H](O)C[C@@H]2[C@@](C)([C@@H]3C[C@H]4CCO[C@H]4O3)[C@H](C)C[C@H](OC(C)=O)[C@@]2(COC(C)=O)[C@@]12CO2` [14,15-DIHYDROAJUGAPITIN] showed an AFI (Spodoptera littoralis [1]) of 92.6%, an AFI (Spodoptera littoralis [2]) of 65.9% and an AFI (Spodoptera littoralis [3]) of 100%. The AFI (Spodoptera littoralis [4]) was 100%.
`CO[C@H]1C[C@@H]2C[C@@H]([C@@]3(C)[C@H](C)C[C@H](OC(C)=O)[C@]4(COC(C)=O)[C@@H]3C[C@@H](O)[C@H](OC(=O)C(C)C)[C@]43CO3)O[C@@H]2O1` [HATIVENE A] was tested, and the AFI (Spodoptera littoralis [1]) was 63.3%, the AFI (Spodoptera littoralis [2]) was 37.3% and the AFI (Spodoptera littoralis [3]) was 100%. The AFI (Spodoptera littoralis [4]) was 100%.
Molecule `CO[C@@H]1C[C@@H]2C[C@@H]([C@@]3(C)[C@H](C)C[C@H](OC(C)=O)[C@]4(COC(C)=O)[C@@H]3C[C@@H](O)[C@H](OC(=O)C(C)C)[C@]43CO3)O[C@@H]2O1` [HATIVENE B] has an AFI (Spodoptera littoralis [1]) of 69%, an AFI (Spodoptera littoralis [2]) of 41.2% and an AFI (Spodoptera littoralis [3]) of 100%. It also gave an AFI (Spodoptera littoralis [4]) of 100%.
`CO[C@@H]1C[C@@H]2C[C@@H]([C@@]3(C)[C@H](C)C[C@H](OC(C)=O)[C@]4(COC(C)=O)[C@@H]3C[C@H](O)[C@H](OC(=O)C(C)C)[C@]43CO3)O[C@@H]2O1` [HATIVENE C] was tested, and the AFI (Spodoptera littoralis [1]) was 63.3%, the AFI (Spodoptera littoralis [2]) was 42.7% and the AFI (Spodoptera littoralis [3]) was 100%. The AFI (Spodoptera littoralis [4]) was 100%.
`CC[C@@H](C)C(=O)O[C@H]1[C@H](O)C[C@@H]2[C@@](C)([C@@H]3C[C@H]4C[C@@H](OC)O[C@H]4O3)[C@H](C)C[C@H](OC(C)=O)[C@@]2(COC(C)=O)[C@@]12CO2` [LUPULIN A] was tested, and the AFI (Spodoptera littoralis [1]) was 74.5%, the AFI (Spodoptera littoralis [2]) was 45% and the AFI (Spodoptera littoralis [3]) was 100%. It also gave an AFI (Spodoptera littoralis [4]) of 100%.
